Experimental data as given in ChEMBL document CHEMBL3352110, “Design, synthesis and in vitro evaluation of novel dehydroabietic acid derivatives containing a dipeptide moiety as potential anticancer agents” (Eur J Med Chem, 2015).
Active and inactive are the calls of the source. No cut-off for these calls is given here.

Legend:
[1] = tested on: HeLa; assay: Induction of apoptosis in human HeLa cells assessed as dead cells at 15 uM after 12 hrs by Anexin-V-FITC/propidium iodide staining-based flow cytometry (reference value: 1.40%); type: functional
[2] = tested on: HeLa; assay: Induction of apoptosis in human HeLa cells assessed as late apoptotic cells at 15 uM after 12 hrs by Anexin-V-FITC/propidium iodide staining-based flow cytometry (reference value: 0.04%); type: functional
[3] = tested on: HeLa; assay: Induction of apoptosis in human HeLa cells assessed as increase in cytochrome c expression at 10 to 15 uM by Western blotting analysis relative to control; type: functional, cell-based
[4] = tested on: HeLa; assay: Induction of apoptosis in human HeLa cells assessed as apoptosis ratio at 10 uM after 12 hrs by Anexin-V-FITC/propidium iodide staining-based flow cytometry (reference value: 1.44%); type: functional
[5] = tested on: HeLa; assay: Induction of apoptosis in human HeLa cells assessed as reduction in Bcl2 expression by Western blotting analysis relative to control; type: functional, cell-based
[6] = tested on: HeLa; assay: Cell cycle arrest in human HeLa cells assessed as accumulation at G2 phase at 10 uM after 48 hrs by propidium iodide stainin-based flow cytometry (reference value: 5.84%); type: functional
[7] = tested on: HeLa; assay: Induction of apoptosis in human HeLa cells assessed as dead cells at 10 uM after 12 hrs by Anexin-V-FITC/propidium iodide staining-based flow cytometry (reference value: 1.40%); type: functional
[8] = tested on: HeLa; assay: Induction of apoptosis in human HeLa cells assessed as caspase-9 activation by spectrophotometry relative to control relative to control; type: functional, cell-based; conditions: TDE = time-dependent effect
[9] = tested on: HeLa; assay: Cell cycle arrest in human HeLa cells assessed as accumulation at S phase at 15 uM after 48 hrs by propidium iodide stainin-based flow cytometry (reference value: 67.72%); type: functional
[10] = tested on: HeLa; assay: Cell cycle arrest in human HeLa cells assessed as accumulation at S phase at 10 uM after 48 hrs by propidium iodide stainin-based flow cytometry (reference value: 67.72%); type: functional
[11] = tested on: HeLa; assay: Induction of apoptosis in human HeLa cells assessed as increase in caspase-3 expression at 10 to 15 uM by Western blotting analysis relative to control; type: functional, cell-based
[12] = tested on: HeLa; assay: Induction of apoptosis in human HeLa cells assessed as caspase-3 activation by spectrophotometry relative to control; type: functional, cell-based; conditions: TDE = time-dependent effect
[13] = tested on: HeLa; assay: Induction of apoptosis in human HeLa cells assessed as early apoptotic cells at 10 uM after 12 hrs by Anexin-V-FITC/propidium iodide staining-based flow cytometry (reference value: 1.40%); type: functional
[14] = tested on: HeLa; assay: Cell cycle arrest in human HeLa cells assessed as accumulation at G1 phase at 15 uM after 48 hrs by propidium iodide stainin-based flow cytometry (reference value: 31.44%); type: functional
[15] = tested on: HeLa; assay: Induction of apoptosis in human HeLa cells assessed as chromatin fragmentation at 15 uM after 12 to 24 hrs by acridine orange/ethidium bromide staining-based assay relative to control; type: functional, cell-based
[16] = tested on: NCI-H460; assay: Cytotoxicity against human NCI-H460 cells after 48 hrs by MTT assay; type: functional, cell-based; conditions: NCI-H460, 48 h
[17] = tested on: HeLa; assay: Induction of apoptosis in human HeLa cells at 15 uM after 12 to 24 hrs by Hoechst 33258 staining-based assay relative to control; type: functional, cell-based
[18] = tested on: HeLa; assay: Induction of apoptosis in human HeLa cells assessed as DNA fragmentation at 15 uM after 12 to 24 hrs by TUNEL assay relative to control; type: functional, cell-based
[19] = tested on: HeLa; assay: Induction of cytochrome C release in human HeLa cells assessed as nuclei conglomeration at 10 to 15 uM after 12 hrs by fluorescence microscopy relative to control; type: functional, cell-based
[20] = tested on: HeLa; assay: Induction of apoptosis in human HeLa cells assessed as viable cells at 10 uM after 12 hrs by Anexin-V-FITC/propidium iodide staining-based flow cytometry (reference value: 97.2%); type: functional; conditions: read-out: Activity
[21] = tested on: HeLa; assay: Induction of apoptosis in human HeLa cells assessed as change in mitochondrial membrane potential at 15 uM after 12 to 24 hrs by JC-1 staining-based assay relative to control; type: functional, cell-based
[22] = tested on: HeLa; assay: Induction of apoptosis in human HeLa cells assessed as chromatin condensation at 15 uM after 12 to 24 hrs by acridine orange/ethidium bromide staining-based assay; type: functional, cell-based
[23] = Cytotoxicity against human HL7702 cells after 48 hrs by MTT assay; type: functional, cell-based; conditions: L02, 48 h
[24] = tested on: MGC-803; assay: Cytotoxicity against human MGC803 cells after 48 hrs by MTT assay; type: functional, cell-based; conditions: MGC-803, 48 h
[25] = tested on: HeLa; assay: Induction of apoptosis in human HeLa cells assessed as increase in caspase-8 expression at 10 to 15 uM by Western blotting analysis relative to control; type: functional, cell-based
[26] = tested on: HeLa; assay: Cell cycle arrest in human HeLa cells assessed as accumulation at G1 phase at 10 uM after 48 hrs by propidium iodide stainin-based flow cytometry (reference value: 31.44%); type: functional
[27] = tested on: HeLa; assay: Induction of apoptosis in human HeLa cells assessed as apoptosis ratio at 15 uM after 12 hrs by Anexin-V-FITC/propidium iodide staining-based flow cytometry (reference value: 1.44%); type: functional
[28] = tested on: HeLa; assay: Induction of apoptosis in human HeLa cells assessed as late apoptotic cells at 10 uM after 12 hrs by Anexin-V-FITC/propidium iodide staining-based flow cytometry (reference value: 0.04%); type: functional
[29] = tested on: HeLa; assay: Induction of apoptosis in human HeLa cells assessed as viable cells at 15 uM after 12 hrs by Anexin-V-FITC/propidium iodide staining-based flow cytometry (reference value: 97.2%); type: functional; conditions: read-out: Activity
[30] = tested on: HeLa; assay: Induction of cytochrome C release in human HeLa cells assessed as karyopyknosis at 10 to 15 uM after 12 hrs by fluorescence microscopy relative to control; type: functional, cell-based
[31] = tested on: HeLa; assay: Induction of apoptosis in human HeLa cells assessed as ROS generation at 10 to 15 uM after 12 hrs by DCF-Da staining-based fluorescence microscopy relative to control; type: functional, cell-based
[32] = tested on: HeLa; assay: Cytotoxicity against human HeLa cells after 48 hrs by MTT assay; type: functional, cell-based
[33] = tested on: HeLa; assay: Induction of apoptosis in human HeLa cells assessed as early apoptotic cells at 15 uM after 12 hrs by Anexin-V-FITC/propidium iodide staining-based flow cytometry (reference value: 1.40%); type: functional
[34] = tested on: HeLa; assay: Cell cycle arrest in human HeLa cells assessed as accumulation at G2 phase at 15 uM after 48 hrs by propidium iodide stainin-based flow cytometry (reference value: 5.84%); type: functional
[35] = tested on: HeLa; assay: Induction of apoptosis in human HeLa cells assessed as increase in Bax expression at 10 to 15 uM by Western blotting analysis relative to control; type: functional, cell-based

In the case of `CC(C)c1ccc2c(c1)C(=O)C[C@H]1[C@](C)(C(=O)N[C@@H](Cc3ccccc3)C(=O)Nc3ccccc3Cl)CCC[C@]21C`, the Activity [1] is reported as 0.612%, the Activity [2] is reported as 13.7% and the Activity [3] is reported as “Active”. The Activity [4] was 20.53%, the Activity [5] was “Dose-dependent effect” and the Activity [6] was 4.8%. The Activity [7] was 0.677%, the Activity [8] was “tde” and the Activity [9] was 83.05%. The Activity [10] was 67.41%, the Activity [11] was “Active” and the Activity [12] was “tde”. The Activity [13] was 13.6%, the Activity [14] was 15.49% and the Activity [15] was “Active”. The IC50 [16] was 24.3 µM, the Activity [17] was “Active” and the Activity [18] was “Active”. For the same compound, the Activity [19] was “Active”, the viability at 10 µM [20] was 78.8% and the Activity [21] was “Active”. For the same compound, the Activity [22] was “Active”, the IC50 [23] was 53.8 µM and the IC50 [24] was 9.7 µM. For the same compound, the Activity [25] was “Active”, the Activity [26] was 27.79% and the Activity [27] was 34.5%. For the same compound, the Activity [28] was 6.93%, the viability at 15 µM [29] was 64% and the Activity [30] was “Active”. The Activity [31] was “Active”, the IC50 [32] was 7.76 µM and the Activity [33] was 21.8%. For the same compound, the Activity [34] was 1.47% and the Activity [35] was “Active”.

In the case of `CC(C)c1ccc2c(c1)C(=O)C[C@H]1[C@](C)(C(=O)N[C@H](Cc3ccccc3)C(=O)Nc3ccccc3Cl)CCC[C@]21C`, the IC50 [16] is reported as 50 µM, the IC50 [23] is reported as 46.5 µM and the IC50 [24] is reported as 29.7 µM. The IC50 [32] was greater than 100 µM.
